Data set [1] deals with rat hepatocytes. Put plainly: EMS-induced cytotoxicity (LDH leakage/cell death) in rat hepatocyte suspensions. The following applies: for inhibition at 25 µM: Rattus norvegicus, Hepatocyte, 5 h.
Data set [2] relates to rat hepatocytes. Kind of data set: EMS-induced lipid peroxidation in rat hepatocyte suspensions. The data set is classed as cell-based. The conditions noted are these: 50 mM EMS, 5 Hrs; concentrations as cell death (Table 15).
Data set [3] relates to male Sprague-Dawley rats. Kind of data set: CCl4 induced lethality in rats. The following applies: for Days Survived After CCl4 Treatment: 100 mg/kg, single dose 24 h prior. It counts as in vivo, rat.
The test system of data set [4] is liver. Put plainly: CCl4 induced hepatotoxicity in rats (serum AST/ALT). The data set is classed as in vivo, rat. The following applies: 100 mg/kg ip 20 h prior, listed as Cholesteryl Succinate free acid. In a few lines: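 Male Sprague-Dawley rats received test compounds i.p. at 100 mg/kg 20–24 h before oral CCl4 (2.9 g/kg or 1 g/kg). Serum AST and ALT were measured 48 h after CCl4 challenge.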

Data set [5] deals with CDF1 mice. Kind of data set: Doxorubicin lethality in CDF1 mice (normal tissue). It counts as in vivo, mouse. The conditions noted are these: 100 mg/kg ip 20 h prior, DOX 10, 15, 20, 25 mg/kg. The procedure: The experiments were conducted in accordance with NCI Protocol 1,100. FIGS. 8a-d show the experimental results obtained when male CDF1 mice (n=6) received either vehicle only or 100mg/kg body weight i.p. dose of either alpha-TS or cholesteryl succinate 20 hours prior to DOX administration. FIGS. 8a-d respectively show the results obtained when the mice received 10, 15, 20, and 25 mg DOX/kg body weight. […] FIGS. 9a-d show the experimental results obtained when male CDF1 mice ([…]) were injected (i.p.) with 10^6 murine L1210 leukemia cells followed immediately by an injection of alpha-TS tris salt (100 mg/kg, i.p.) or saline injection (vehicle), and twenty hours later (Day=0) each mouse in three of the groups was i.p. injected with 15, 20, or 25 mg DOX/kg body weight ([…]). Survival was monitored for twenty days.

Data set [6] concerns liver. Put plainly: THA-induced hepatotoxicity in rats (serum AST). It counts as in vivo, rat. The following applies: 100 mg/kg ip.
Experimental: FIGS. 10 and 11 show the results of in vivo experiments where male Sprague-Dawley rats were given an oral dose of 15 or 30 mg THA/kg body weight, respectively. […] The serum AST levels were determined with respect to time after the THA challenge.
For data set [7], the system named is rat. The following applies: in vivo, ip, 100 mg/kg.
Experimental: The duration of pentobarbitone-induced sleeping time is directly dependent on the metabolism of pentobarbitone in the liver.
^a Rats are pretreated, with the compounds listed, 20 hours prior to
The subject of data set [8] is rat hepatocytes. Put plainly: ATP content of rat hepatocyte suspensions. The conditions noted are these: 25 μM. It counts as cell-based. An excerpt:
It is well known that the succinate molecule is utilized by the cell to produce ATP energy. In the tricarboxylic acid cycle, succinate is oxidized by succinate dehydrogenase to produce ATP. Oxidation occurs in the mitochondria and the mitochondria can utilize both succinate formed in the mitochondria or succinate transported to the mitochondria. Increasing ATP production may enhance cellular repair processes as well as normal metabolic processes. For example, the cell's ability to remove free intracellular Ca^2+ during a toxic insult is related to ATP production. Succinate administration stimulates gluconeogenesis to form glucose 6-phosphate which is used for producing energy anaerobically (ATP formation through glycolysis) and for producing reducing equivalents (NADPH formation through the hexose monophosphate shunt needed for lipid and nucleotide biosynthesis and other biosynthetic reductions and enzymatic reactions, e.g., glutathione reductase). An in vitro experiment was conducted to determine the relationship between the release of succinate from alpha-TS and the cellular ATP level. The experiment was performed by incubating a tocopherol analog in a rat hepatocyte suspension and measuring the ATP level at the beginning and end of the test.
Rat hepatocyte suspensions were subjected to 50 mM EMS and the percentage of cell death, the percentage of intracellular K^+ (a metabolic parameter as discussed above), the depletion of ATP and the effect on lipid peroxidation were monitored.

The test system of data set [9] is L1210 leukemia cells. The conditions noted are these: mouse, in vivo.
For data set [10], the system named is gluconeogenesis or ATP production. The following applies: cited from earlier work.
The subject of data set [11] is isolated rat liver mitochondria. The following applies: 6 mM succinate; cited from earlier work.

The values that follow come from patent publication US5336485A, “Method for protecting animals against tacrine induced cytotoxic injury using sterol compounds” (priority 1993, dated 1994).

Read-outs that look alike come from different tables or passages of the source. Bounds are passed on as bounds.

As for `CC(C)CCC[C@@H](C)[C@H]1CC[C@H]2[C@@H]3CC=C4C[C@@H](OC(=O)CCC(=O)O)CC[C@]4(C)[C@H]3CC[C@]12C` [Cholesteryl Succinate], the “Cell Death” value in [1] (50 mM EMS, 5 Hrs, alpha-TS 25, methyl ester 50, cholesteryl succinate 100, monomethyl/dimethyl succinate 250 μM) came to 48 ± 4%. Further, the inhibition at 25 µM in data set [1] (read-out: Percent Cytoprotection) came out at 30 ± 22%. Besides, the “Lipid Peroxidation” value in [2] is on record as 11.3 ± 4.2 nmolMDA/10^6 cells. Besides, in data set [3], the “Days Survived After CCl4 Treatment” value is above 7 days. The “Serum AST Levels” value in data set [4] (24 hrs after 2 g/kg CCl4 (Table 26)) is 1.84 ± 1.13 10^3 units/L; in [4] (48 hrs after 2 g/kg CCl4 (Table 26)), 1.90 ± 2.64 10^3 units/L. Further, the “survival after DOX, normal mice (FIGS. 8a-d)” value in [5] is “survived significantly longer”. Besides, the “protection against THA hepatotoxicity (FIG. 10)” value in [6] (THA 15 mg/kg) is reported as “protects against the hepatotoxicity resulting from THA”. For the same compound, the “protection against THA hepatotoxicity (FIG. 11)” value in data set [6] (THA 30 mg/kg) is on record as “protects against the hepatotoxicity resulting from THA”.
With `CC(C)(C(=O)c1cccnc1)c1cccnc1` [Metyrapone], the “Sleeping Time” value in data set [7] is given as 900 ± 120 min.
Consider `O=C(O)CCC(=O)O` [Succinic Acid, reference compound], for which, in [1] (read-out: Percent Cytoprotection, 25 μM, 50 mM EMS, 5 h), the inhibition at 25 µM was 0%. In addition, in data set [3] (100 mg/kg ip 24 h prior, […] CCl4 oral), the “Survival after CCl4 treatment” value is on record as “No”. In addition, the “Days Survived After CCl4 Treatment” value in [3] was 2 days. Also, in data set [3] (rat, in vivo), the “cytoprotection (Table 7, in words)” value was “not cytoprotective”. For the same compound, in data set [8], the “Rate of ATP Depletion” value is 1.8 ± 0.2 nmoles/10^6 cell/hr. The entries for the “Cellular ATP” value in data set [8] (0 Hr) and in [8] (6 Hr) were 15.7 ± 1.3 nmoles/10^6 cells and 4.9 ± 0.6 nmoles/10^6 cells, respectively. For the same compound, the “Survival time (footnote)” value in data set [9] was “identical for succinate and vehicle treated”. Also, in [10], the “concentration required to stimulate gluconeogenesis or ATP production” value was “Millimolar concentrations”. Further, the “increase of Ca2+ capacity and Ca2+ retention of mitochondria” value in data set [11] is on record as “five to seven”.
